Here are results for 26 compounds from patent US12415815B2, “Pyrido[2,3-e]oxazine derivatives as agricultural chemicals” (GLOBACHEM NV, priority 2020, dated 2025).

Converted amounts (≈) assume the structure as drawn. A value given as a limit tells only on which side of the number the result lay.

Holding throughout (type): cell-based
The subject of one assay is Zymoseptoria tritici. The experiment in a line: Fungicidal activity screen in amended agar, 96 well plates, Zymoseptoria tritici. Particulars: 1% potato dextrose agar, 10,000 spores/mL, 20, 2, 0.2 and 0.02 ppm, room temperature (18° C.), assessed after 7 days; for EC50: Zymoseptoria tritici, 168 h, read-out: Zymoseptoria (fungal growth vs DMSO controls, EC50 ranking). As for the experimental part: (§1) Compounds were screened in 96 well plates with 10 compounds per plate. Each compound was screened using agar amended to 20, 2, 0.2 and 0.02 ppm of the test material. Proline at 50 and 10 ppm and 0.2% DMSO were used respectively as positive and negative controls. Each test concentration and standard were tested twice on a plate.
(§2) Compounds were screened against the following three fungal pathogens—Botrytis cinerea, Alternaria alternata and Zymoseptoria tritici. The agar used in the test varied depending on the pathogen with Medium N used for B. cinerea and A. alternata and 1% potato dextrose agar for Z. tritici. For each pathogen sufficient spores were added to the appropriate agar to give 1,000 spores/mL agar of A. alternata, 5,000 spores/ml agar of B. cinerea and 10,000 spores/mL agar of Z. tritici.
(§3) A ×10 stock solution in 2% DMSO was produced for each dose i.e. 200, 20, 2 and 0.2 ppm, and 10 μl of this added to the appropriate wells on the plate. An equivalent amount of 2% DMSO and Proline stock at 500 and 100 ppm were added for the controls. To each well, 90 μl of the appropriate agar spore suspension was added to give the final well concentrations outlined in the first paragraph.
(§4) Plates were incubated at room temperature (18° C.) and assessed after: • a) 3 to 4 days A. alternata and B. cinerea • b) 7 days for Z. tritici
(§5) The amount of fungal growth in each well was compared to the DMSO controls and scored according to the following key: • A—EC50<2 ppm • B—2≤EC50<20 • C—EC50≥20 • D—No activity detected at the highest dose tested • NT—Not tested

In a further assay the test system is Botrytis cinerea. Put plainly: Fungicidal activity screen in amended agar, 96 well plates, Botrytis cinerea. To be noted: Medium N agar, 5,000 spores/ml, 20, 2, 0.2 and 0.02 ppm, room temperature (18° C.), assessed after 3 to 4 days, read-out: Botrytis (fungal growth vs DMSO controls, EC50 ranking). How it is done: as §1, §2, §3, §4, §5
A further assay concerns Alternaria alternata. Put plainly: Fungicidal activity screen in amended agar, 96 well plates, Alternaria alternata. Particulars: Medium N agar, 1,000 spores/mL, 20, 2, 0.2 and 0.02 ppm, room temperature (18° C.), assessed after 3 to 4 days, read-out: Alternaria (fungal growth vs DMSO controls, EC50 ranking). As for the experimental part:
as §1, §2, §3, §4, §5

Regarding “3-(7-chloro-6-(2-chlorophenoxy) benzo[d]thiazol-2-yl)-8-methoxy-2- thioxo-2,3-dihydro-4H-pyrido[2,3- e][1,3]oxazin-4-one [Example 35]”, the “Zymoseptoria (fungal growth vs DMSO controls, EC50 ranking)” value with Zymoseptoria tritici is listed as “A (EC50<2 ppm)”. By EC50 is commonly meant the concentration needed to bring the measured effect to its halfway point. In the case of `COc1ccnc2c(=O)n(-c3nc4ccc(Oc5ccc(F)cc5Cl)cc4s3)c(=O)oc12` [Example 1, 3-(6-(2-Chloro-4-fluorophenoxy)benzo[d]thiazol-2-yl)-8-methoxy-2H-pyrido[2,3-e][1,3]oxazine-2,4(3H)-dione], the results for the half-maximal effective concentration (EC50) in the assay with Botrytis cinerea, in the assay on Alternaria alternata and in the assay on Zymoseptoria tritici were 2 to 20 µg/mL (≈ 4.24 to 42.4 µM), 2 to 20 µg/mL (≈ 4.24 to 42.4 µM) and below 2 µg/mL, respectively. As to `COc1ccnc2c(=O)n(-c3nc4ccc(Oc5cncc(C(F)(F)F)c5)cc4s3)c(=O)oc12` [Example 2, 8-Methoxy-3-(6-((5-(trifluoromethyl)pyridin-3-yl)oxy)benzo[d]thiazol-2-yl)-2H-pyrido[2,3-e][1,3]oxazine-2,4(3H)-dione], the EC50 is 2 to 20 µg/mL (≈ 4.09 to 40.9 µM) in the assay on Botrytis cinerea, 2 to 20 µg/mL (≈ 4.09 to 40.9 µM) in the assay on Alternaria alternata and below 2 µg/mL with Zymoseptoria tritici. On to `COc1ccnc2c(=O)n(-c3nc4ccc(Oc5ccc(F)cc5)cc4s3)c(=O)oc12` [Example 3, 3-(6-(4-Fluorophenoxy)benzo[d]thiazol-2-yl)-8-methoxy-2H-pyrido[2,3-e][1,3]oxazine-2,4(3H)-dione], for which the EC50 is 2 to 20 µg/mL (≈ 4.57 to 45.7 µM) in the assay with Botrytis cinerea, 2 to 20 µg/mL (≈ 4.57 to 45.7 µM) with Alternaria alternata and below 2 µg/mL in the assay on Zymoseptoria tritici. As to `COc1ccnc2c(=O)n(-c3nc4ccc(Oc5ccccc5)cc4s3)c(=O)oc12` [Example 4, 8-Methoxy-3-(6-phenoxybenzo[d]thiazol-2-yl)-2H-pyrido[2,3-e][1,3]oxazine-2,4(3H)-dione], the EC50 is 2 to 20 µg/mL (≈ 4.77 to 47.7 µM) with Botrytis cinerea, 2 to 20 µg/mL (≈ 4.77 to 47.7 µM) with Alternaria alternata and below 2 µg/mL in the assay on Zymoseptoria tritici. As for `COc1ccnc2c(=O)n(-c3nc4ccc(Oc5ccccc5Cl)cc4s3)c(=O)oc12` [Example 5, 3-(6-(2-Chlorophenoxy)benzo[d]thiazol-2-yl)-8-methoxy-2H-pyrido[2,3-e][1,3]oxazine-2,4(3H)-dione], the concentration for a half-maximal effect (EC50) was 2 to 20 µg/mL (≈ 4.41 to 44.1 µM) with Botrytis cinerea, 2 to 20 µg/mL (≈ 4.41 to 44.1 µM) with Alternaria alternata and below 2 µg/mL in the assay with Zymoseptoria tritici.

Regarding `COc1ccnc2c(=O)n(-c3nc4cc(-c5ccccc5Cl)c(Oc5ccc(F)cc5Cl)cc4s3)c(=S)oc12` [Example 12, 3-(6-(2-Chloro-4-fluorophenoxy)-5-(2-chlorophenyl)benzo[d]thiazol-2-yl)-8-methoxy-2-thioxo-2,3-dihydro-4H-pyrido[2,3-e][1,3]oxazin-4-one], in the assay on Zymoseptoria tritici, the concentration for a half-maximal effect (EC50) is below 2 µg/mL. On the same count and under the same terms, for `COc1ccnc2c(=O)n(-c3nc4c(-c5ccccc5)cc(Oc5ccc(F)cc5Cl)cc4s3)c(=S)oc12` [Example 13, 3-(6-(2-Chloro-4-fluorophenoxy)-4-phenylbenzo[d]thiazol-2-yl)-8-methoxy-2-thioxo-2,3-dihydro-4H-pyrido[2,3-e][1,3]oxazin-4-one] the value was below 2 µg/mL; for `COc1ccnc2c(=O)n(-c3nc4cnc(Oc5ccc(F)cc5Cl)nc4s3)c(=S)oc12` [Example 14, 3-(5-(2-Chloro-4-fluorophenoxy)thiazolo[5,4-d]pyrimidin-2-yl)-8-methoxy-2-thioxo-2,3-dihydro-4H-pyrido[2,3-e][1,3]oxazin-4-one], below 2 µg/mL; for `COc1ccnc2c(=O)n(-c3nc4ccc(C(=O)OC(C)C)cc4s3)c(=S)oc12` [Example 15, Isopropyl 2-(8-methoxy-4-oxo-2-thioxo-2H-pyrido[2,3-e][1,3]oxazin-3(4H)-yl)benzo[d]thiazole-6-carboxylate], below 2 µg/mL. The same measure, in the same setting: for `COc1ccnc2c(=O)n(-c3nc4ccc(N(C)c5ccc(F)cc5Cl)cc4s3)c(=S)oc12` [Example 16, 3-(6-((2-Chloro-4-fluorophenyl)(methyl)amino)benzo[d]thiazol-2-yl)-8-methoxy-2-thioxo-2,3-dihydro-4H-pyrido[2,3-e][1,3]oxazin-4-one] the value was below 2 µg/mL; for `COc1ccnc2c(=O)n(-c3nc4ccc(Oc5ccccc5Cl)cc4s3)c(=S)oc12` [Example 18, 3-(6-(2-Chlorophenoxy)benzo[d]thiazol-2-yl)-8-methoxy-2-thioxo-2,3-dihydro-4H-pyrido[2,3-e][1,3]oxazin-4-one], below 2 µg/mL. The same measure, in the same setting: for `COc1ccnc2c(=O)n(-c3nc4ccc(C(=O)c5ccccc5)cc4s3)c(=S)oc12` [Example 19, 3-(6-Benzoylbenzo[d]thiazol-2-yl)-8-methoxy-2-thioxo-2,3-dihydro-4H-pyrido[2,3-e][1,3]oxazin-4-one] the value was 2 to 20 µg/mL (≈ 4.47 to 44.7 µM). Turning to `COc1ccnc2c(=O)n(-c3nc4ccc(Cc5ccccc5)cc4s3)c(=S)oc12` [Example 24, 3-(6-Benzylbenzo[d]thiazol-2-yl)-8-methoxy-2-thioxo-2,3-dihydro-4H-pyrido[2,3-e][1,3]oxazin-4-one], the EC50 in the assay on Zymoseptoria tritici lay in the range of 2 to 20 µg/mL (≈ 4.61 to 46.1 µM). For the compound `COc1ccnc2c(=O)n(-c3nc4ccc(Oc5ccc(Cl)cc5)cc4s3)c(=S)oc12` [Example 25, 3-(6-(4-Chlorophenoxy)benzo[d]thiazol-2-yl)-8-methoxy-2-thioxo-2,3-dihydro-4H-pyrido[2,3-e][1,3]oxazin-4-one], the EC50 in the assay on Zymoseptoria tritici is below 2 µg/mL. Still for that read-out and setting: then `COc1ccnc2c(=S)n(-c3nc4ccc(Oc5ccccc5Cl)cc4s3)c(=S)oc12` [Example 26, 3-(6-(2-Chlorophenoxy)benzo[d]thiazol-2-yl)-8-methoxy-2H-pyrido[2,3-e][1,3]oxazine-2,4(3H)-dithione], with below 2 µg/mL; and `COc1ccccc1Oc1ccc2nc(-n3c(=S)oc4c(OC)ccnc4c3=O)sc2c1` [Example 30, 8-methoxy-3-(6-(2-methoxyphenoxy)benzo[d]thiazol-2-yl)-2-thioxo-2,3-dihydro-4H-pyrido[2,3-e][1,3]oxazin-4-one], with below 2 µg/mL.

Take `COc1ccnc2c(=O)n(-c3nc4ccc(N(C)c5ccccc5Cl)cc4s3)c(=S)oc12` [Example 31, 3-(6-((2-chlorophenyl)(methyl)amino)benzo[d]thiazol-2-yl)-8-methoxy-2-thioxo-2,3-dihydro-4H-pyrido[2,3-e][1,3]oxazin-4-one]: in the assay with Zymoseptoria tritici, the EC50 is below 2 µg/mL. On the same count and under the same terms, then `COc1ccnc2c(=O)n(-c3nc4ccc(N(C)c5ccc(Cl)cc5)cc4s3)c(=S)oc12` [Example 32, 3-(6-((4-chlorophenyl)(methyl)amino)benzo[d]thiazol-2-yl)-8-methoxy-2-thioxo-2,3-dihydro-4H-pyrido[2,3-e][1,3]oxazin-4-one], with below 2 µg/mL; and `COc1ccnc2c(=O)n(-c3nc4ccc(N(C)c5cncc(Cl)c5)cc4s3)c(=S)oc12` [Example 33, 3-(6-((5-chloropyridin-3-yl)(methyl)amino)benzo[d]thiazol-2-yl)-8-methoxy-2-thioxo-2,3-dihydro-4H-pyrido[2,3-e][1,3]oxazin-4-one], with 2 to 20 µg/mL (≈ 4.13 to 41.3 µM); and `COc1ccnc2c(=O)n(-c3nc4ccc(Sc5ccccc5Cl)cc4s3)c(=S)oc12` [Example 34, 3-(6-((2-chlorophenyl)thio)benzo[d]thiazol-2-yl)-8-methoxy-2-thioxo-2,3-dihydro-4H-pyrido[2,3-e][1,3]oxazin-4-one], with below 2 µg/mL. In the case of `COCCOc1ccccc1Oc1ccc2nc(-n3c(=S)oc4c(OC)ccnc4c3=O)sc2c1` [Example 37, 8-methoxy-3-(6-(2-(2-methoxyethoxy)phenoxy)benzo[d]thiazol-2-yl)-2-thioxo-2,3-dihydro-4H-pyrido[2,3-e][1,3]oxazin-4-one], in the assay with Zymoseptoria tritici, the EC50 lay within 2 to 20 µg/mL (≈ 3.92 to 39.2 µM). Still for that read-out and setting: then `COc1ccnc2c(=O)n(-c3nc4ccc(OCC(C)C)cc4s3)c(=S)oc12` [Example 43, 3-(6-isobutoxybenzo[d]thiazol-2-yl)-8-methoxy-2-thioxo-2,3-dihydro-4H-pyrido[2,3-e][1,3]oxazin-4-one], with below 2 µg/mL; and `COc1ccnc2c(=O)n(-c3nc4ccc(Oc5ccccc5OCC5CC5)cc4s3)c(=S)oc12` [Example 44, 3-(6-(2-(cyclopropylmethoxy)phenoxy)benzo[d]thiazol-2-yl)-8-methoxy-2-thioxo-2,3-dihydro-4H-pyrido[2,3-e][1,3]oxazin-4-one], with 2 to 20 µg/mL (≈ 3.96 to 39.6 µM). The same measure, in the same setting: for `COc1ccccc1Sc1ccc2nc(-n3c(=S)oc4c(OC)ccnc4c3=O)sc2c1` [Example 45, 8-methoxy-3-(6-((2-methoxyphenyl)thio)benzo[d]thiazol-2-yl)-2-thioxo-2,3-dihydro-4H-pyrido[2,3-e][1,3] oxazin-4-one] the value was 2 to 20 µg/mL (≈ 4.15 to 41.5 µM); for `COc1ccnc2c(=O)n(-c3nc4ccc(Oc5ccc(C(F)(F)F)cc5)cc4s3)c(=S)oc12` [Example 46, 8-methoxy-2-thioxo-3-(6-(4-(trifluoromethyl)phenoxy)benzo[d]thiazol-2-yl)-2,3-dihydro-4H-pyrido[2,3-e][1,3]oxazin-4-one], below 2 µg/mL.
